Source: patent publication US20020025983A1, “Vitamin K and essential fatty acids” (priority 2000, published 2002)

What was measured:
[1] = test system: person with atopic dermatitis and with mild premenstrual syndrome; assay: Case report: person with atopic dermatitis and mild premenstrual syndrome given EPO, vitamin K1, then EPO again; assay type: in vivo, human; details: vitamin K1 supplements alone
Description: A person with atopic dermatitis and with mild premenstrual syndrome was recommended to take 3 g/day of evening primrose oil (EPO). EPO is a widely used nutritional supplement for these problems. It contains about 70% of linoleic acid, but more importantly contains 8-12% of GLA which can by-pass a block in the conversion of linoleic acid to GLA which can occur in many situations, including atopic dermatitis, stress and menstrual disorders. […] As an experiment they were then cautiously given EPO again.

[2] = test system: person with severe menstrual cramps and mild premenstrual syndrome; assay: Case report: person with severe menstrual cramps and mild premenstrual syndrome given EPO and fish oil, vitamin K1, then EPO and fish oil again; assay type: in vivo, human; details: vitamin K1 supplement 2 mg (2000 μg) per day for a month, alone
Experimental: A second person presented with severe menstrual cramps and mild premenstrual syndrome. […] They therefore took 2 mg (2000 μg) per day of a vitamin K1 supplement for a month which also had no effect on their menstrual problems.

[3] = test system: women with osteoporosis; details: 45 mg/day; cited from earlier work

| Molecule | improvement of skin or premenstrual syndrome [1] | vitamin K deficiency [1] | effect on menstrual problems [2] | progressive loss of bone mineral density [3] | risk of bone fractures [3] |
| --- | --- | --- | --- | --- | --- |
| CC1=C(C/C=C(\C)CCC[C@H](C)CCC[C@H](C)CCCC(C)C)C(=O)c2ccccc2C1=O [vitamin K1, phylloquinone] | did not improve | corrected | no effect |  |  |
| menaquinones [vitamin K2] |  |  |  | slow down but not prevent | could reduce the risk of bone fractures |
